Test results taken from US12655127B2, “Fused ring compound as Wee-1 inhibitor” (WIGEN BIOMEDICINE TECHNOLOGY (SHANGHAI) CO., LTD., priority 2021, dated 2026).

Target: recombinant protein Wee-1 (Homo sapiens, UniProt P30291)
Assay: Inhibition of enzymatic activity of recombinant protein Wee-1 (HTRF)
Format: biochemical
Protocol: The inhibitory effect of the compounds on the enzyme activity of recombinant protein Wee-1 was determined by HTRF. The procedures are as follows:
After DMSO or serially diluted compounds (up to 200 nM, 1:5 serially diluted) and recombinant proteins were co-incubated in a kinase buffer at 37° C. for 30 min Fluorescein-PolyGAT and ATP were added, and then the reaction was started by the addition of a substrate. After incubation at room temperature for 90 min, an antibody and a detection solution were added, and after further incubation at room temperature for 60 min, fluorescence values were detected (excitation wavelength: 340 nm, emission wavelengths: 495 and 520 nm). The 520 nm/495 nm fluorescence intensity ratio value was calculated, and compared with that of the DMSO group, and then the inhibition percentages and IC50 values of the compounds were calculated.

Sequence of recombinant protein Wee-1 (P30291 whole entry): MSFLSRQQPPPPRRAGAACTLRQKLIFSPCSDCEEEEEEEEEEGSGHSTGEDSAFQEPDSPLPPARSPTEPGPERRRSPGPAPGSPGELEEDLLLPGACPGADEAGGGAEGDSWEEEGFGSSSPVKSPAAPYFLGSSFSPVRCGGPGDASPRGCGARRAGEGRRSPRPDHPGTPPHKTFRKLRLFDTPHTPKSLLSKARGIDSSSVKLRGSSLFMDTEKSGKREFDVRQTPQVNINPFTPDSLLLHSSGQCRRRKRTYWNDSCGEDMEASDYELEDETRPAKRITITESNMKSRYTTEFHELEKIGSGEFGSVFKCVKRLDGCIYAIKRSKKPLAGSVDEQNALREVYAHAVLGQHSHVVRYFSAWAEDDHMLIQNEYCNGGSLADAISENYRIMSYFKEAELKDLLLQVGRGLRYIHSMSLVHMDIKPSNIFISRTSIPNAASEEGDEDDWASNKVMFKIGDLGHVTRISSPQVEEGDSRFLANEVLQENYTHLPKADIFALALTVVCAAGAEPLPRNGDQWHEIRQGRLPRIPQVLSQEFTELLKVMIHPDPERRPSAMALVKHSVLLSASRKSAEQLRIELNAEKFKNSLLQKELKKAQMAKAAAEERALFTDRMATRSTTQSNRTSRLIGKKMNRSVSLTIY

`CN1Cc2cc(Nc3ncc(C#N)c(-n4cnc5c(N=S(C)(C)=O)cccc54)n3)cc3c2C(CCC3)C1` (centres unmarked) [Compound 117] and `CN1Cc2cc(Nc3ncc(C#N)c(N4CCc5c(N=S(C)(C)=O)cccc54)n3)cc3c2C(CCC3)C1` (centres unmarked) [Compound 114] cannot be ordered by IC50: at most 0.01 µM for the first, at most 0.01 µM for the second.

`CN1Cc2cc(Nc3ncc(C#N)c(Nc4cccc(N=S(C)(C)=O)n4)n3)cc3c2C(CCC3)C1(C)C` (centres unmarked) [Compound 133] and `CN1Cc2cc(Nc3ncc(C#N)c(Nc4cccc(N=S(C)(C)=O)n4)n3)cc3c2C(C1)C(C)(C)CC3` (centres unmarked) [Compound 30] cannot be ordered by IC50: at most 0.01 µM for the first, at most 0.01 µM for the second.

`CN1Cc2cc(Nc3ncc(C#N)c(Nc4cccc(N=S(C)(C)=O)n4)n3)cc3c2C(CCS3)C1` (centres unmarked) [Compound 65] and `CN1Cc2cc(Nc3ncc(C#N)c(Nc4cccc(N=S(C)(C)=O)n4)n3)cc3c2C(CCCCS3)C1` (centres unmarked) [Compound 83] cannot be ordered by IC50: at most 0.01 µM for the first, at most 0.01 µM for the second.

`CN1Cc2cc(Nc3ncc(C#N)c(-c4cn(C)c5c(N=S(C)(C)=O)cccc45)n3)cc3c2C(CCC3)C1` (centres unmarked) [Compound 116] and `CN1Cc2cc(Nc3ncc(C#N)c(-c4c[nH]c5c(N=S(C)(C)=O)cccc45)n3)cc3c2C(CCC3)C1` (centres unmarked) [Compound 115] cannot be ordered by IC50: at most 0.01 µM for the first, at most 0.01 µM for the second.

`CN1Cc2cc(Nc3ncc(C#N)c(Nc4cccc(N=S(C)(C)=O)n4)n3)cc3c2C(C1)CC1(CC1)C3` (centres unmarked) [Compound 26] and `CN1Cc2cc(Nc3ncc(C#N)c(Nc4cccc(N=S(C)(C)=O)n4)n3)cc3c2C(C1)CC(C)(C)C3` (centres unmarked) [Compound 27] cannot be ordered by IC50: at most 0.01 µM for the first, at most 0.01 µM for the second.

`CN1Cc2cc(Nc3ncc(C#N)c(Nc4cccc(N=S(C)(C)=O)n4)n3)cc3c2C(C1)OCC3` (centres unmarked) [Compound 68] and `CN1Cc2cc(Nc3ncc(C#N)c(Nc4cccc(N=S(C)(C)=O)n4)n3)cc3c2C(C1)OC3` (centres unmarked) [Compound 72] cannot be ordered by IC50: at most 0.01 µM for the first, at most 0.01 µM for the second.

`CN1Cc2cc(Nc3ncc(C#N)c(Nc4cccc(N=S(C)(C)=O)n4)n3)cc3c2[C@@](C)(CCCC3)C1` [Compound 61] and `CN1Cc2cc(Nc3ncc(C#N)c(Nc4cccc(N=S(C)(C)=O)n4)n3)cc3c2[C@](C)(CC3)C1` [Compound 54] cannot be ordered by IC50: at most 0.01 µM for the first, 0.01 to 0.05 µM for the second.

`CN1Cc2cc(Nc3ncc(C#N)c(Nc4cc(F)cc(N=S(C)(C)=O)n4)n3)cc3c2C(CCC3)C1` (centres unmarked) [Compound 111] and `[2H]c1ccc(Nc2nc(Nc3cc4c5c(c3)CN(C)CC5CCC4)ncc2C#N)nc1N=S(C)(C)=O` (centres unmarked) [Compound 135] cannot be ordered by IC50: at most 0.01 µM for the first, at most 0.01 µM for the second.

`CCS(=O)(CC)=Nc1cccc(Nc2nc(Nc3cc4c5c(c3)CN(C)CC5CCC4)ncc2C#N)n1` (centres unmarked) [Compound 91] and `CN1Cc2cc(Nc3ncc(C#N)c(Nc4cccc(N=S(C)(C)=O)n4)n3)cc3c2[C@@H](CCCC3)C1` [Compound 58] cannot be ordered by IC50: at most 0.01 µM for the first, at most 0.01 µM for the second.

`CN1Cc2cc(Nc3ncc(C#N)c(Nc4cc5c(c(N=S(C)(C)=O)n4)CCC5)n3)cc3c2C(CCC3)C1` (centres unmarked) [Compound 120] and `CN1Cc2cc(Nc3ncc(C#N)c(Nc4nc(N=S(C)(C)=O)cc5c4CCN5)n3)cc3c2C(CCC3)C1` (centres unmarked) [Compound 119] cannot be ordered by IC50: at most 0.01 µM for the first, at most 0.01 µM for the second.

`CN1Cc2cc(Nc3ncc(C#N)c(Nc4cccc(N=S(C)(C)=O)n4)n3)cc3c2C(CC(O)C3)C1` (centres unmarked) [Compound 291] and `CN1Cc2cc(Nc3ncc(C#N)c(Nc4cccc(N=S(C)(C)=O)n4)n3)cc3c2C(CC(N)C3)C1` (centres unmarked) [Compound 292] cannot be ordered by IC50: at most 0.01 µM for the first, at most 0.01 µM for the second.

`CN1Cc2c3c(cc(Nc4ncc(C#N)c(Nc5cccc(N=S(C)(C)=O)n5)n4)c2C2CC2)CCCC3C1` (centres unmarked) [Compound 42] and `CN1Cc2cc(Nc3ncc(C#N)c(Nc4cccc(N=S(C)(C)=O)n4)n3)c(C3CC3)c3c2C(CCC3)C1` (centres unmarked) [Compound 47] cannot be ordered by IC50: at most 0.01 µM for the first, at most 0.01 µM for the second.

`CN1Cc2cc(Nc3ncc(C#N)c(Nc4cccc(P(C)(C)=O)n4)n3)cc3c2[C@@H](CCC3)C1` (single isomer, unassigned) [Compound 139] and `CN1Cc2cc(Nc3ncc(C#N)c(Nc4cccc(P(C)(C)=O)n4)n3)cc3c2[C@H](CCC3)C1` (single isomer, unassigned) [Compound 138] cannot be ordered by IC50: at most 0.01 µM for the first, at most 0.01 µM for the second.

`CS(C)(=O)=Nc1cccc(Nc2nc(Nc3cc4c5c(c3)CN(C3CC3)C[C@@H]5CCC4)ncc2C#N)n1` [Compound 15] and `CN1Cc2cc(Nc3ncc(C#N)c(Nc4cccc(N=S(C)(C)=O)n4)n3)cc3c2[C@H](CCCC3)C1` [Compound 57] cannot be ordered by IC50: at most 0.01 µM for the first, at most 0.01 µM for the second.

`CN1Cc2cc(Nc3ncc(C#N)c(Nc4cccc(N=S(C)(C)=O)n4)n3)cc3c2C(CO3)C1` (centres unmarked) [Compound 70] and `CN1Cc2cc(Nc3ncc(C#N)c(Nc4cccc(N=S(C)(C)=O)n4)n3)cc3c2C(CC=C3)C1` (centres unmarked) [Compound 35] cannot be ordered by IC50: at most 0.01 µM for the first, at most 0.01 µM for the second.

`CN1Cc2cc(Nc3ncc(C#N)c(Nc4cccc(N=S(C)(C)=O)n4)n3)cc3c2C(CCOC3)C1` (centres unmarked) [Compound 76] and `CN1Cc2cc(Nc3ncc(C#N)c(Nc4cccc(N=S(C)(C)=O)n4)n3)cc3c2C(CCC32CC2)C1` (centres unmarked) [Compound 32] cannot be ordered by IC50: at most 0.01 µM for the first, at most 0.01 µM for the second.

`CN1Cc2cc(Nc3ncc(C#N)c(Nc4cccc(N=S(C)(C)=O)n4)n3)cc3c2C2(CC2CC3)C1` (centres unmarked) [Compound 39] and `CN1Cc2cc(Nc3ncc(C#N)c(Nc4cccc(N=S(C)(C)=O)n4)n3)cc3c2C(C1)C(N)CC3` (centres unmarked) [Compound 294] cannot be ordered by IC50: at most 0.01 µM for the first, at most 0.01 µM for the second.

`CN1Cc2cc(Nc3ncc(C#N)c(Nc4cccc(N=S5(=O)CCCC5)n4)n3)cc3c2C(CCC3)C1` (centres unmarked) [Compound 93] and `[2H]C1([2H])c2cc(Nc3ncc(C#N)c(Nc4cccc(N=S(C)(C)=O)n4)n3)cc3c2C(CCC3)CN1C` (centres unmarked) [Compound 280] cannot be ordered by IC50: at most 0.01 µM for the first, at most 0.01 µM for the second.

`CN1Cc2cc(Nc3ncc(C#N)c(Nc4cccc(N=S(C)(C)=O)n4)n3)cc3c2C(CCC3(F)F)C1` (centres unmarked) [Compound 34] and `CN1Cc2cc(Nc3ncc(C#N)c(Nc4cccc(N=S(C)(C)=O)n4)n3)cc3c2C(CCC3(C)C)C1` (centres unmarked) [Compound 33] cannot be ordered by IC50: at most 0.01 µM for the first, at most 0.01 µM for the second.

`CN(C)C1Cc2cc(Nc3ncc(C#N)c(Nc4cccc(N=S(C)(C)=O)n4)n3)cc3c2C1CCC3` (centres unmarked) [Compound 90] and `CC(C)N1Cc2cc(Nc3ncc(C#N)c(Nc4cccc(N=S(C)(C)=O)n4)n3)cc3c2[C@@H](CCC3)C1` [Compound 12] cannot be ordered by IC50: at most 0.01 µM for the first, at most 0.01 µM for the second.

`CN1Cc2cc(Nc3ncc(C#N)c(Nc4cccc(N=S(C)(C)=O)n4)n3)cc3c2C(C1)NCC3` (centres unmarked) [Compound 130] and `CN1Cc2cc(Nc3ncc(C#N)c(Nc4cccc(N=S(C)(C)=O)n4)n3)cc3c2C(C1)SCCC3` (centres unmarked) [Compound 81] cannot be ordered by IC50: at most 0.01 µM for the first, at most 0.01 µM for the second.

`CN1Cc2cc(Nc3ncc(C#N)c(Nc4cccc(N=S(C)(C)=O)n4)n3)cc3c2C(C1)C1(CC3)CC1` (centres unmarked) [Compound 29] and `CN1CC2CCCc3cc(Nc4ncc(C#N)c(Nc5cccc(N=S(C)(C)=O)n5)n4)cc(c32)C12CC2` (centres unmarked) [Compound 19] cannot be ordered by IC50: at most 0.01 µM for the first, at most 0.01 µM for the second.

`CN1C[C@H]2CCCc3cc(Nc4ncc(C#N)c(Nc5cccc(N=S(C)(C)=O)n5)n4)cc(c32)C1(C)C` [Compound 21] and `CC(C)N1Cc2cc(Nc3ncc(C#N)c(Nc4cccc(N=S(C)(C)=O)n4)n3)cc3c2C(CCC3)C1` (centres unmarked) [Compound 10] cannot be ordered by IC50: at most 0.01 µM for the first, at most 0.01 µM for the second.

`CS(C)(=O)=Nc1cccc(Nc2nc(Nc3cc4c5c(c3)CN(CCO)CC5CCC4)ncc2C#N)n1` (centres unmarked) [Compound 16] and `CN1Cc2cc(Nc3ncc(Br)c(Nc4cccc(N=S(C)(C)=O)n4)n3)cc3c2C(CCC3)C1` (centres unmarked) [Compound 100] cannot be ordered by IC50: at most 0.01 µM for the first, at most 0.01 µM for the second.

`CN1Cc2cc(Nc3ncc(C#N)c(Nc4ccnc(N=S(C)(C)=O)c4)n3)cc3c2C(CCC3)C1` (centres unmarked) [Compound 102] and `COc1c(Nc2ncc(C#N)c(Nc3cccc(N=S(C)(C)=O)n3)n2)cc2c3c1CN(C)CC3CCC2` (centres unmarked) [Compound 44] cannot be ordered by IC50: at most 0.01 µM for the first, at most 0.01 µM for the second.
